Assay results as given in US20090018134A1, “Compounds - 945” (AstraZeneca AB, priority 2007, published 2009).

What follows are compounds tested against T1, mTOR (Homo sapiens, UniProt P42345) (assay: In Vitro mTOR Kinase Assay (Echo), Test (a)(ii)). Conditions: table of enzyme assay Test (a)(ii); read-out: Test (a)(ii) IC50.
T1 construct: FLAG; made in house
Format: biochemical
Outline: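 Compounds were acoustically dispensed, then incubated with FLAG-tagged mTOR (1362-2549) for 2 hours at room temperature. Reactions were quenched with EDTA plus detection antibody and AlphaScreen beads and left overnight in the dark before reading. Loss of phospho-T389 signal gave IC50 values.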

T1 sequence (P42345 1362-2549): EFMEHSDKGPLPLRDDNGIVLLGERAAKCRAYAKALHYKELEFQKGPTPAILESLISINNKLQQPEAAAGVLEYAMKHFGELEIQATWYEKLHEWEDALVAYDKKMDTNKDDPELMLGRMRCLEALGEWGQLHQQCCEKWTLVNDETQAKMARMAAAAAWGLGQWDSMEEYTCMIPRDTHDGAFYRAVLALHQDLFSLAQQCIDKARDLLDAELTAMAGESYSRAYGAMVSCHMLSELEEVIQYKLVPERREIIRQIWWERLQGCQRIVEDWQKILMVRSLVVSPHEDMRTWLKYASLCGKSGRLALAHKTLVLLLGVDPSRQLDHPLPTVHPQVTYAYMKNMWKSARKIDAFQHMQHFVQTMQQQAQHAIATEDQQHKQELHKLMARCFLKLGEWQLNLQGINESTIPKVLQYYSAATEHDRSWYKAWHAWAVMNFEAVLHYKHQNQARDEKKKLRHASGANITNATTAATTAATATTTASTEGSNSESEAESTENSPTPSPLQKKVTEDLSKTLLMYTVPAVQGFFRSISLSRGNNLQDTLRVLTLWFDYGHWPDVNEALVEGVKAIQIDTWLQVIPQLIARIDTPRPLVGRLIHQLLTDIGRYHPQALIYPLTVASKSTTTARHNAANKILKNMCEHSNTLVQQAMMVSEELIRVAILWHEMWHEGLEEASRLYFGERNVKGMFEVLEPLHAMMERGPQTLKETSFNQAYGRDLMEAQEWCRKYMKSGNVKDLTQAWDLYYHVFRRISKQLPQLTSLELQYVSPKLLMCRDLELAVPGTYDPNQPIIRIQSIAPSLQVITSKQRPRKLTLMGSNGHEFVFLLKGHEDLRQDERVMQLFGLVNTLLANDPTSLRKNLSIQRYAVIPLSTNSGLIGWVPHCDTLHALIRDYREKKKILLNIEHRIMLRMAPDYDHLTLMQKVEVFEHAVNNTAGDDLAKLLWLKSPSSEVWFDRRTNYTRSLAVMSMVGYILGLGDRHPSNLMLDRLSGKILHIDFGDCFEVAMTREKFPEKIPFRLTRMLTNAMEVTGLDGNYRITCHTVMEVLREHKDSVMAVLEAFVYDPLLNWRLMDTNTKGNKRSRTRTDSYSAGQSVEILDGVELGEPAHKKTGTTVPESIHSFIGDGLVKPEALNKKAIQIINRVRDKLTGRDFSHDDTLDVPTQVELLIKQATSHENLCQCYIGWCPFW

| SMILES | IC50 |
| --- | --- |
| C[C@H]1COCCN1c1cc(C2(S(=O)(=O)C3CC3)CCC2)nc(-c2ccc(NC(=O)NCc3ncc[nH]3)cc2)n1 [Example 36i, 1-[4-[4-(1-cyclopropylsulfonylcyclobutyl)-6-[(3S)-3-methylmorpholin-4-yl]pyrimidin-2-yl]phenyl]-3-(1H-imidazol-2-ylmethyl)urea] | 51.8 nM |
| C[C@H]1COCCN1c1cc(C2(S(=O)(=O)C3CC3)CCCC2)nc(-c2ccc(NC(=O)NC3CC3)cc2)n1 [Example 36j, 3-cyclopropyl-1-[4-[4-(1-cyclopropylsulfonylcyclopentyl)-6-[(3S)-3-methylmorpholin-4-yl]pyrimidin-2-yl]phenyl]urea] | 18 nM |
| C[C@H]1COCCN1c1cc(C2(S(=O)(=O)C3CC3)CCCC2)nc(-c2ccc(NC(=O)NCCO)cc2)n1 [Example 36k, 1-[4-[4-(1-cyclopropylsulfonylcyclopentyl)-6-[(3S)-3-methylmorpholin-4-yl]pyrimidin-2-yl]phenyl]-3-(2-hydroxyethyl)urea] | 13.1 nM |
| C[C@H]1COCCN1c1cc(C2(S(=O)(=O)C3CC3)CCCC2)nc(-c2ccc(NC(=O)NCCC#N)cc2)n1 [Example 36l, 3-(2-cyanoethyl)-1-[4-[4-(1-cyclopropylsulfonylcyclopentyl)-6-[(3S)-3-methylmorpholin-4-yl]pyrimidin-2-yl]phenyl]urea] | 42.8 nM |
| C[C@H]1COCCN1c1cc(C2(S(=O)(=O)C3CC3)CCCC2)nc(-c2ccc(NC(=O)NCCCO)cc2)n1 [Example 36m, 1-[4-[4-(1-cyclopropylsulfonylcyclopentyl)-6-[(3S)-3-methylmorpholin-4-yl]pyrimidin-2-yl]phenyl]-3-(3-hydroxypropyl)urea] | 34.7 nM |
| Cc1csc(S(=O)(=O)C2(c3cc(N4CCOC[C@@H]4C)nc(-c4ccc(NC(=O)NCc5ncc[nH]5)cc4)n3)CC2)n1 [Example 36n, 3-(1H-imidazol-2-ylmethyl)-1-[4-[4-[(3S)-3-methylmorpholin-4-yl]-6-[1-[(4-methyl-1,3-thiazol-2-yl)sulfonyl]cyclopropyl]pyrimidin-2-yl]phenyl]urea] | 24.8 nM |
| Cc1csc(S(=O)(=O)C2(c3cc(N4CCOC[C@@H]4C)nc(-c4ccc(NC(=O)NC5(CO)CC5)cc4)n3)CC2)n1 [Example 36q, 3-[1-(hydroxymethyl)cyclopropyl]-1-[4-[4-[(3S)-3-methylmorpholin-4-yl]-6-[1-[(4-methyl-1,3-thiazol-2-yl)sulfonyl]cyclopropyl]pyrimidin-2-yl]phenyl]urea] | 88.9 nM |
| CS(=O)(=O)C1(c2cc(N3CCOCC3)nc(-c3ccc(NC(=O)NCc4ncc[nH]4)cc3)n2)CC1 [Example 36t, 3-(1H-imidazol-2-ylmethyl)-1-[4-[4-(1-methylsulfonylcyclopropyl)-6-morpholin-4-ylpyrimidin-2-yl]phenyl]urea] | 194 nM |
| CCS(=O)(=O)C1(c2cc(N3CCOC[C@@H]3C)nc(-c3ccc(NC(=O)NCCC#N)cc3)n2)CC1 [Example 36u, 3-(2-cyanoethyl)-1-[4-[4-(1-ethylsulfonylcyclopropyl)-6-[(3S)-3-methylmorpholin-4-yl]pyrimidin-2-yl]phenyl]urea] | 9.22 nM |
| CCS(=O)(=O)C1(c2cc(N3CCOC[C@@H]3C)nc(-c3ccc(NC(=O)NC4(CO)CC4)cc3)n2)CC1 [Example 36v, 1-[4-[4-(1-ethylsulfonylcyclopropyl)-6-[(3S)-3-methylmorpholin-4-yl]pyrimidin-2-yl]phenyl]-3-[1-(hydroymethyl)cyclopropyl]urea] | 467 nM |
| CCS(=O)(=O)C1(c2cc(N3CCOC[C@@H]3C)nc(-c3ccc(NC(=O)NCc4ncc[nH]4)cc3)n2)CC1 [Example 36w, 1-[4-[4-(1-ethylsulfonylcyclopropyl)-6-[(3S)-3-methylmorpholin-4-yl]pyrimidin-2-yl]phenyl]-3-(1H-imidazol-2-ylmethyl)urea] | 110 nM |
| C[C@H]1COCCN1c1cc(C2(S(=O)(=O)c3ccc(F)cc3)CC2)nc(-c2ccc(NC(=O)NC3(CO)CC3)cc2)n1 [Example 36x, 1-[4-[4-[1-(4-fluorophenyl)sulfonylcyclopropyl]-6-[(3S)-3-methylmorpholin-4-yl]pyrimidin-2-yl]phenyl]-3-[1-(hydroxymethyl)cyclopropyl]urea] | 182 nM |
| CNC(=S)Nc1ccc(-c2nc(N3CCOC[C@@H]3C)cc(C3(S(=O)(=O)C4CC4)CC3)n2)cc1 [Example 37a, 1-[4-[4-(1-cyclopropylsulfonylcyclopropyl)-6-[(3S)-3-methylmorpholin-4-yl]pyrimidin-2-yl]phenyl]-3-methylthiourea] | 26 nM |
| C[C@H]1COCCN1c1cc(C2(S(=O)(=O)c3ccncc3)CC2)nc(-c2ccc(NC(=S)NC3CC3)cc2)n1 [Example 37ae, 3-cyclopropyl-1-[4-[4-[(3S)-3-methylmorpholin-4-yl]-6-(1-pyridin-4-ylsulfonylcyclopropyl)pyrimidin-2-yl]phenyl]thiourea] | 9.52 nM |
| CNC(=S)Nc1ccc(-c2nc(N3CCOC[C@@H]3C)cc(C3(S(=O)(=O)c4ccncc4)CC3)n2)cc1 [Example 37af, 3-methyl-1-[4-[4-[(3S)-3-methylmorpholin-4-yl]-6-(1-pyridin-4-ylsulfonylcyclopropyl)pyrimidin-2-yl]phenyl]thiourea] | 23.3 nM |
| C[C@H]1COCCN1c1cc(C2(S(=O)(=O)c3ccccc3)CC2)nc(-c2ccc(NC(=S)NC(C)(C)CO)cc2)n1 [Example 37ag, 1-[4-[4-[1-(benzenesulfonyl)cyclopropyl]-6-[(3S)-3-methylmorpholin-4-yl]pyrimidin-2-yl]phenyl]-3-(1-hydroxy-2-methylpropan-2-yl)thiourea] | 13.4 nM |

The next compounds have a lower IC50 than those just listed; values first:

| IC50 | SMILES |
| --- | --- |
| 8.41 nM | CCS(=O)(=O)C1(c2cc(N3CCOC[C@@H]3C)nc(-c3ccc(NC(=O)NCCF)cc3)n2)CC1 [Example 36ef, 1-[4-[4-(1-ethylsulfonylcyclopropyl)-6-[(3S)-3-methylmorpholin-4-yl]pyrimidin-2-yl]phenyl]-3-(2-fluorethyl)urea] |
| 8.77 nM | CCS(=O)(=O)C1(c2cc(N3CCOC[C@@H]3C)nc(-c3ccc(NC(=O)NCC(F)F)cc3)n2)CC1 [Example 36eg, 3-(2,2-difluoroethyl)-1-[4-[4-(1-ethylsulfonylcyclopropyl)-6-[(3S)-3-methylmorpholin-4-yl]pyrimidin-2-yl]phenyl]urea] |
| 2.78 nM | C[C@H]1COCCN1c1cc(C2(S(=O)(=O)C3CC3)CCC2)nc(-c2ccc(NC(=O)NCCO)cc2)n1 [Example 36f, 1-[4-[4-(1-cyclopropylsulfonylcyclobutyl)-6-[(3S)-3-methylmorpholin-4-yl]pyrimidin-2-yl]phenyl]-3-(2-hydroxyethyl)urea] |
| 8.41 nM | C[C@H]1COCCN1c1cc(C2(S(=O)(=O)C3CC3)CCC2)nc(-c2ccc(NC(=O)NCCC#N)cc2)n1 [Example 36g, 3-(2-cyanoethyl)-1-[4-[4-(1-cyclopropylsulfonylcyclobutyl)-6-[(3S)-3-methylmorpholin-4-yl]pyrimidin-2-yl]phenyl]urea] |
| 3.14 nM | C[C@H]1COCCN1c1cc(C2(S(=O)(=O)C3CC3)CCC2)nc(-c2ccc(NC(=O)Nc3cnn(C)c3)cc2)n1 [Example 36h, 1-[4-[4-(1-cyclopropylsulfonylcyclobutyl)-6-[(3S)-3-methylmorpholin-4-yl]pyrimidin-2-yl]phenyl]-3-(1-methylpyrazol-4-yl)urea] |
| 3.58 nM | Cc1csc(S(=O)(=O)C2(c3cc(N4CCOC[C@@H]4C)nc(-c4ccc(NC(=O)NCCC#N)cc4)n3)CC2)n1 [Example 36o, 3-(2-cyanoethyl)-1-[4-[4-[(3S)-3-methylmorpholin-4-yl]-6-[1-[(4-methyl-1,3-thiazol-2-yl)sulfonyl]cyclopropyl]pyrimidin-2-yl]phenyl]urea] |
| 1.61 nM | Cc1csc(S(=O)(=O)C2(c3cc(N4CCOC[C@@H]4C)nc(-c4ccc(NC(=O)Nc5ncns5)cc4)n3)CC2)n1 [Example 36p, 1-[4-[4-[(3S)-3-methylmorpholin-4-yl]-6-[1-[(4-methyl-1,3-thiazol-2-yl)sulfonyl]cyclopropyl]pyrimidin-2-yl]phenyl]-3-(1,2,4-thiadiazol-5-yl)urea] |
| 7.33 nM | CS(=O)(=O)C1(c2cc(N3CCOCC3)nc(-c3ccc(NC(=O)NCCC#N)cc3)n2)CC1 [Example 36r, 3-(2-cyanoethyl)-1-[4-[4-(1-methylsulfonylcyclopropyl)-6-morpholin-4-ylpyrimidin-2-yl]phenyl]urea] |
| 4.75 nM | CS(=O)(=O)C1(c2cc(N3CCOCC3)nc(-c3ccc(NC(=O)Nc4ncns4)cc3)n2)CC1 [Example 36s, 1-[4-[4-(1-methylsulfonylcyclopropyl)-6-morpholin-4-ylpyrimidin-2-yl]phenyl]-3-(1,2,4-thiadiazol-5-yl)urea] |
| 1.31 nM | C[C@H]1COCCN1c1cc(C2(S(=O)(=O)c3ccc(F)cc3)CC2)nc(-c2ccc(NC(=O)NCCC#N)cc2)n1 [Example 36y, 3-(2-cyanoethyl)-1-[4-[4-[1-(4-fluorophenyl)sulfonylcyclopropyl]-6-[(3S)-3-methylmorpholin-4-yl]pyrimidin-2-yl]phenyl]urea] |
| 2.08 nM | C[C@H]1COCCN1c1cc(C2(S(=O)(=O)c3ccc(F)cc3)CC2)nc(-c2ccc(NC(=O)Nc3ncns3)cc2)n1 [Example 36z, 1-[4-[4-[1-(4-fluorophenyl)sulfonylcyclopropyl]-6-[(3S)-3-methylmorpholin-4-yl]pyrimidin-2-yl]phenyl]-3-(1,2,4-thiadiazol-5-yl)urea] |
| 5.67 nM | C[C@H]1COCCN1c1cc(C2(S(=O)(=O)c3ccccc3)CC2)nc(-c2ccc(NC(=S)NCCO)cc2)n1 [Example 37aa, 1-[4-[4-[1-(benzenesulfonyl)cyclopropyl]-6-[(3S)-3-methylmorpholin-4-yl]pyrimidin-2-yl]phenyl]-3-(2-hydroxyethyl)thiourea] |
| 2.63 nM | C[C@H]1COCCN1c1cc(C2(S(=O)(=O)c3ccncc3)CC2)nc(-c2ccc(NC(=S)NCCO)cc2)n1 [Example 37ad, 3-(2-hydroxyethyl)-1-[4-[4-[(3S)-3-methylmorpholin-4-yl]-6-(1-pyridin-4-ylsulfonylcyclopropyl)pyrimidin-2-yl]phenyl]thiourea] |
